From ChEMBL document CHEMBL4840363, “Genome-Guided Discovery of Highly Oxygenated Aromatic Polyketides, Saccharothrixins D-M, from the Rare Marine Actinomycete Saccharothrix sp. D09” (J Nat Prod, 2021) come the findings set out here.

Converted amounts (≈) assume the structure as drawn.

For assay [1], the system named is Helicobacter pylori. Nature of the assay: Antibacterial activity against Helicobacter pyroli 159 assessed as inhibition of bacterial growth incubated for 48 hrs. Type of assay: functional.
Another assay has as its system A549. Kind of assay: Cytotoxicity against human A549 cells assessed as reduction in cell viability by MTT assay. It is filed as functional, cell-based. On the technique in general: Tetrazolium assays rely on reduction of a dye to a coloured formazan, in cell work by metabolically active cells.
The next assay deals with MCF7. Kind of assay: Cytotoxicity against human MCF7 cells assessed as reduction in cell viability by MTT assay. It is filed as functional, cell-based.
A further assay deals with RAW264.7. Kind of assay: Antiinflammatory activity against mouse RAW264.7 cells assessed as inhibition of LPS induced NO production preincubated for 30 mins followed by LPS addition measured after 48 hrs by griess reagent based assay. It is filed as functional, cell-based. In general terms: The Griess reaction detects nitrite, a stable product of nitric oxide.
The subject of the next assay is HepG2. Kind of assay: Cytotoxicity against human HepG2 cells assessed as reduction in cell viability by MTT assay. Type of assay: functional, cell-based.
The next assay relates to HCT-116. Kind of assay: Cytotoxicity against human HCT-116 cells assessed as reduction in cell viability by MTT assay. It is filed as functional, cell-based.
In the next assay the test system is Staphylococcus aureus. Nature of the assay: Antibacterial activity against Staphylococcus aureus ATCC25923 assessed as inhibition of bacterial growth incubated for 48 hrs. Type of assay: functional.
The subject of assay [2] is Helicobacter pylori. Kind of assay: Antibacterial activity against Helicobacter pyroli G27 assessed as inhibition of bacterial growth incubated for 48 hrs. It is filed as functional.

As usually defined, the MIC is the least concentration at which growth counts as inhibited. As a reminder, the IC50 is the concentration at which inhibition is half-maximal. Regarding `COc1cccc2c1[C@H](O)[C@]13C=C[C@]4(O)CC(C)=CC(=O)[C@@H]4[C@]1(O3)C2=O`, the MIC with Helicobacter pylori [1] came out at 32 µg/mL (≈ 90.3 µM). The IC50 with A549 is more than 20 µM; in the assay with MCF7 it was more than 20 µM; in the assay with RAW264.7, 28 µM; in the assay on HepG2 it was more than 20 µM; in the assay with HCT-116, more than 20 µM.

Regarding `Cc1cc(O[C@H]2O[C@@H](C)[C@H](O)[C@@H](O)[C@H]2O)c2c3c(ccc2c1)C(=O)c1c(O)cccc1[C@@H]3O`, the MIC with Staphylococcus aureus, with Helicobacter pylori [1] and in the assay with Helicobacter pylori [2] was 16 µg/mL (≈ 35.4 µM) throughout. Further, the IC50 with A549, with MCF7, with HepG2 and in the assay on HCT-116 was more than 20 µM each time.

For the molecule `COc1cccc2c1[C@H](O)[C@]13C=C[C@]4(O)CC(C)=CC(=O)[C@@H]4[C@]1(O3)[C@H]2O`, the MIC with Helicobacter pylori [1] was 32 µg/mL (≈ 89.8 µM). In addition, the IC50 with A549, in the assay on MCF7, with HepG2 and in the assay with HCT-116 was more than 20 µM in each case.
